Source: US20190216761A1, “COMPOSITIONS COMPRISING 15-HEPE AND METHODS OF USING THE SAME” (Afimmune Limited, priority 2015, published 2019)
Where a chain is given by its changes, count along the chain named.

What was measured:
Type in all cases: cell-based
rPPARγ = biological target: T1, rPPARγ (Rattus norvegicus, UniProt O88275); experiment: PPAR antagonist reporter assay (reference agonist at EC80)
T1 construct: expressed in transfected cells
T1 sequence (O88275 238-503 limits assumed): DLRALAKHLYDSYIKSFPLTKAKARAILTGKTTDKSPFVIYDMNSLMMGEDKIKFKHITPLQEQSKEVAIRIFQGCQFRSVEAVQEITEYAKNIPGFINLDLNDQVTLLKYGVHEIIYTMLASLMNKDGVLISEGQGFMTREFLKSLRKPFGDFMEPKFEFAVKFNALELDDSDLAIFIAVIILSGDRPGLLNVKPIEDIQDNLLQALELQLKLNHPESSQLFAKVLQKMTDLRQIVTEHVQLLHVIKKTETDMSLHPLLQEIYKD
Experimental: (§1) This study utilized proprietary reporter cells expressing a hybrid receptor comprising the N-terminal Gal4 DNA binding domain fused to the ligand binding domain of the specific human nuclear receptor (hPPARα, hPPARδ, and hPPARγ) and rat nuclear receptor (rPPARα, rPPARδ, and rPPARγ). The reporter vectors used in this Example comprise the firefly luciferase gene functionally linked to the Gal4 upstream activation sequence.
(§2) Nuclear Receptor assay was performed by suspending Reporter Cells in CRM containing 10% charcoal stripped FBS. 2×-EC80 concentrations of the appropriate reference agonist were then added to the Reporter Cell suspension, and 100 μL of the mixture dispensed into wells of a white 96-well plate. Test compounds were diluted using compound screening medium (CSM) containing 10% charcoal stripped FBS to generate “2×-concentration” treatment media. Immediately after this dilution step, 100 μL of each diluted 2×-concentration treatment medium was dispensed (in triplicate) into the Reporter Cell-containing assay wells.
(§3) After incubation at 37° C. for 24 hours, the treatment media was discarded. Each well was rinsed once with LCM Buffer; LCM substrate was then added. After incubation for 30 minutes at 37° C., fluorescence was measured to determine the relative number of live cells per assay well. LCM substrate was then discarded and 100 μL of Luciferase Detection Reagent substrate was added to each well. RLUs were quantified from each well to determine nuclear receptor activities.

hPPARδ = biological target: T2, hPPARδ (Homo sapiens, UniProt Q03181); experiment: as above
T2 construct: expressed in transfected cells
T2 sequence (Q03181 211-439 limits assumed): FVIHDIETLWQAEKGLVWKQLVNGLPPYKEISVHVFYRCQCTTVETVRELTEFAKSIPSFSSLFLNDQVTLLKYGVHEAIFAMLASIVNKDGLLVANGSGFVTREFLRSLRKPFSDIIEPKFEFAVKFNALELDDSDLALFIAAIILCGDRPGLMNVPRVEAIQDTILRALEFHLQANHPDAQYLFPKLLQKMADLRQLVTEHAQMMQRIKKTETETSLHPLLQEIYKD
Experimental: as §1, §2, §3

rPPARα = biological target: T3, rPPARα (Rattus norvegicus, UniProt P37230); experiment: as above
T3 construct: expressed in transfected cells
T3 sequence (P37230 239-466 limits assumed): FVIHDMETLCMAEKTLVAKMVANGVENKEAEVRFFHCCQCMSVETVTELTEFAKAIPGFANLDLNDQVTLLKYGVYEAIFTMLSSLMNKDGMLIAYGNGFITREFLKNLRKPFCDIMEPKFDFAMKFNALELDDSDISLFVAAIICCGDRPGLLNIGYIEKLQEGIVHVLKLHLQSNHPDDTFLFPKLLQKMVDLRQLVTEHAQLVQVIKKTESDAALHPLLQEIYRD
Experimental: as §1, §2, §3

hPPARα = biological target: T4, hPPARα (Homo sapiens, UniProt Q07869); experiment: as above
T4 construct: expressed in transfected cells
T4 sequence (Q07869 239-466 limits assumed): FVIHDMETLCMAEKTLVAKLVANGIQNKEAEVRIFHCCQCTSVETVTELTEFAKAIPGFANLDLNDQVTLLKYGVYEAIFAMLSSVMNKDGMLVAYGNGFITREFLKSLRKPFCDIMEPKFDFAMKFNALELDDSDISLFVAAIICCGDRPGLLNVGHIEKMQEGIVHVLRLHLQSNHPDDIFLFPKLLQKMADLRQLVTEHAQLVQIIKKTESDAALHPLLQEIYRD
Experimental: as §1, §2, §3

hPPARγ = biological target: T5, hPPARγ (Homo sapiens, UniProt P37231); experiment: as above
T5 construct: expressed in transfected cells
T5 sequence (P37231 238-503 limits assumed): T1 sequence (O88275 238-503 limits assumed) with N93S, I98V, V226L, H245Q
Experimental: as §1, §2, §3

hPPARα Reporter Cells = experiment: Live cell multiplex assay
Experimental: as §1, §2, §3

hPPARδ Reporter Cells = experiment: Live cell multiplex assay
Experimental: as §1, §2, §3

With CC/C=C\C/C=C\C/C=C\C/C=C\C/C=C\CCCC(=O)OCC [EPA-EE, EPA ethyl ester, reference compound] the “% Inhibition of agonist-stimulated receptor activity vs. 0.10% DMSO, rPPAR-γ” value (from here on “% Inhibition … rPPAR-γ”) (rPPARγ; 137 nM) was 9.6%, the “% Inhibition … rPPAR-γ” value (rPPARγ; 412 nM) was −7.4% and the “% Inhibition … rPPAR-γ” value (rPPARγ; 1,235 nM) was −7.3%. For the same compound, the “% Inhibition … rPPAR-γ” value (rPPARγ; 3,704 nM) was −0.55%, the “% Inhibition … rPPAR-γ” value (rPPARγ; 11,111 nM) was 2.8% and the “% Inhibition … rPPAR-γ” value (rPPARγ; 33,333 nM) was 5.0%. For the same compound, the “% Inhibition … rPPAR-γ” value (rPPARγ; 100,000 nM) was 6.2%, the “% Inhibition … rPPAR-γ” value (rPPARγ; 300,000 nM) was 7.0% and the “inhibition of rat PPARs (in words), rPPARγ” value (rPPARγ; at higher test concentrations) was “does not exhibit similar inhibitory activity”. The “% Inhibition of agonist-stimulated receptor activity vs. 0.10% DMSO, hPPAR-δ” value (“% Inhibition … hPPAR-δ” below) (hPPARδ; 137 nM) was −3.4%, the “% Inhibition … hPPAR-δ” value (hPPARδ; 412 nM) was −8.9% and the “% Inhibition … hPPAR-δ” value (hPPARδ; 1,235 nM) was −5.5%. The “% Inhibition … hPPAR-δ” value (hPPARδ; 3,704 nM) was −15%, the “% Inhibition … hPPAR-δ” value (hPPARδ; 11,111 nM) was −7.9% and the “% Inhibition … hPPAR-δ” value (hPPARδ; 33,333 nM) was −18%. For the same compound, the “% Inhibition … hPPAR-δ” value (hPPARδ; 100,000 nM) was −6.8%, the “% Inhibition … hPPAR-δ” value (hPPARδ; 300,000 nM) was 11% and the “inhibition of human PPARs (in words), hPPARδ” value (hPPARδ; at higher test concentrations) was “does not exhibit similar inhibitory activity”. For the same compound, the “% Inhibition of agonist-stimulated receptor activity vs. 0.10% DMSO, rPPAR-α” value (shortened to “% Inhibition … rPPAR-α”) (rPPARα; 137 nM) was 51%, the “% Inhibition … rPPAR-α” value (rPPARα; 412 nM) was 20% and the “% Inhibition … rPPAR-α” value (rPPARα; 1,235 nM) was 5.7%. For the same compound, the “% Inhibition … rPPAR-α” value (rPPARα; 3,704 nM) was 4.2%, the “% Inhibition … rPPAR-α” value (rPPARα; 11,111 nM) was −4.7% and the “% Inhibition … rPPAR-α” value (rPPARα; 33,333 nM) was 1.4%. For the same compound, the “% Inhibition … rPPAR-α” value (rPPARα; 100,000 nM) was 13%, the “% Inhibition … rPPAR-α” value (rPPARα; 300,000 nM) was 36% and the “inhibition of rat PPARs (in words), rPPARα” value (rPPARα; at higher test concentrations) was “does not exhibit similar inhibitory activity”. The “% Inhibition of agonist-stimulated receptor activity vs. 0.10% DMSO, hPPAR-α” value (“% Inhibition … hPPAR-α” for short) (hPPARα; 137 nM) was 35%, the “% Inhibition … hPPAR-α” value (hPPARα; 412 nM) was 20% and the “% Inhibition … hPPAR-α” value (hPPARα; 1,235 nM) was 18%. The “% Inhibition … hPPAR-α” value (hPPARα; 3,704 nM) was 17%, the “% Inhibition … hPPAR-α” value (hPPARα; 11,111 nM) was 11% and the “% Inhibition … hPPAR-α” value (hPPARα; 33,333 nM) was 10%. The “% Inhibition … hPPAR-α” value (hPPARα; 100,000 nM) was 7.1%, the “% Inhibition … hPPAR-α” value (hPPARα; 300,000 nM) was 2.8% and the “inhibition of human PPARs (in words), hPPARα” value (hPPARα; at higher test concentrations) was “does not exhibit similar inhibitory activity”. For the same compound, the “% Inhibition of agonist-stimulated receptor activity vs. 0.10% DMSO, hPPAR-γ” value (“% Inhibition … hPPAR-γ” below) (hPPARγ; 137 nM) was 13%, the “% Inhibition … hPPAR-γ” value (hPPARγ; 412 nM) was 3.8% and the “% Inhibition … hPPAR-γ” value (hPPARγ; 1,235 nM) was −8.0%. The “% Inhibition … hPPAR-γ” value (hPPARγ; 3,704 nM) was −11%, the “% Inhibition … hPPAR-γ” value (hPPARγ; 11,111 nM) was −8.4% and the “% Inhibition … hPPAR-γ” value (hPPARγ; 33,333 nM) was 2.9%. For the same compound, the “% Inhibition … hPPAR-γ” value (hPPARγ; 100,000 nM) was −0.59%, the “% Inhibition … hPPAR-γ” value (hPPARγ; 300,000 nM) was 30% and the “inhibition of human PPARs (in words), hPPARγ” value (hPPARγ; at higher test concentrations) was “does not exhibit similar inhibitory activity”. For the same compound, the “% Live cells vs. 0.10% DMSO, hPPAR-α” value (hPPARα Reporter Cells; 137 nM) was 99%, the “% Live cells vs. 0.10% DMSO, hPPAR-α” value (hPPARα Reporter Cells; 412 nM) was 93% and the “% Live cells vs. 0.10% DMSO, hPPAR-α” value (hPPARα Reporter Cells; 1,235 nM) was 113%. The “% Live cells vs. 0.10% DMSO, hPPAR-α” value (hPPARα Reporter Cells; 3,704 nM) was 112%, the “% Live cells vs. 0.10% DMSO, hPPAR-α” value (hPPARα Reporter Cells; 11,111 nM) was 116% and the “% Live cells vs. 0.10% DMSO, hPPAR-α” value (hPPARα Reporter Cells; 33,333 nM) was 112%. The “% Live cells vs. 0.10% DMSO, hPPAR-α” value (hPPARα Reporter Cells; 100,000 nM) was 96%, the “% Live cells vs. 0.10% DMSO, hPPAR-α” value (hPPARα Reporter Cells; 300,000 nM) was 80% and the “% Live cells vs. 0.10% DMSO, hPPAR-δ” value (hPPARδ Reporter Cells; 137 nM) was 97%. For the same compound, the “% Live cells vs. 0.10% DMSO, hPPAR-δ” value (hPPARδ Reporter Cells; 412 nM) was 97%, the “% Live cells vs. 0.10% DMSO, hPPAR-δ” value (hPPARδ Reporter Cells; 1,235 nM) was 99% and the “% Live cells vs. 0.10% DMSO, hPPAR-δ” value (hPPARδ Reporter Cells; 3,704 nM) was 100%. For the same compound, the “% Live cells vs. 0.10% DMSO, hPPAR-δ” value (hPPARδ Reporter Cells; 11,111 nM) was 101%, the “% Live cells vs. 0.10% DMSO, hPPAR-δ” value (hPPARδ Reporter Cells; 33,333 nM) was 101% and the “% Live cells vs. 0.10% DMSO, hPPAR-δ” value (hPPARδ Reporter Cells; 100,000 nM) was 103%. For the same compound, the “% Live cells vs. 0.10% DMSO, hPPAR-δ” value (hPPARδ Reporter Cells; 300,000 nM) was 103%.
